Test system: full-thickness wound in C57BL/KsJ db/db mice
Assay: db/db mouse full-thickness wound model
Assay type: in vivo
Conditions: for wound area reduction: 100 μl applied once daily for 18 days, day 18 following wound construction (vehicle 73%); for day from which wound area differs significantly (p<0.05) from the vehicle control group: once daily
Excerpt: Test Example 1 (db/db mouse full-thickness wound model)
Using 10-week-old male C57BL/KsJ db/db mice (db/db mice) and the corresponding control C57BL/KsJ +m/+m mice (+m/+m mice), the back hair coat was removed with a depilatory cream. After 3 days, using ophthalmological scissors, the skin in a circular area with a diameter of about 1.5 cm at the dorsal midline was removed to construct a full-thickness wound. Thereafter, the full-thickness wound area was covered with a poly-urethane film agent. During 18 consecutive days beginning the day of wound construction, 100 μl of the investigational compound solution or distilled water (vehicle) was taken in a syringe and applied through the polyurethane film once daily. The polyurethane film agent was changed every day and after disinfection with 3% H2O2, the drug was applied in the same manner as above. The wound area was measured by the tracing method under light anesthesia every other day as a rule. With the initial wound area at the beginning of drug application being taken as 100%, the fractional area at each day of measurement was calculated.

O=C(O)COc1cccc2c1CC[C@](O)(COC(=O)N(c1ccccc1)c1ccccc1)C2 [test compound, [[(2R)-5-(carboxymethoxy)-2-hydroxy-1,2,3,4-tetrahydronaphth-2-yl]methyl]N,N-diphenylcarbamate]
early expansion of wound area (0.01% and 0.1% solutions): not observed | overall conclusion on wound healing (0.01% and 0.1% solutions): wound healing-promoting action | wound area reduction (0.01% solution): 90% | day from which wound area differs significantly (p<0.05) from the vehicle control group (0.01% solution): ≥ 7 days | wound area reduction (0.1% solution): 93% | day from which wound area differs significantly (p<0.05) from the vehicle control group (0.1% solution): ≥ 4 days
